assay: method code SF-TN, from DOI: 10.1007/bf00773207

SMILES | logP
O=C(O)c1ccccc1Nc1ccccc1 | 3.52
COc1ccc(Nc2ccccc2C(=O)O)cc1 | 3.68
O=C(O)c1ccccc1Nc1ccc(Cl)cc1 | 4.24
O=C(O)c1ccccc1Nc1ccccc1Cl | 3.94
O=C(O)c1ccc(Cl)cc1Nc1cccc([N+](=O)[O-])c1 | 4.05
Cc1cc(C)cc(Nc2cc(Cl)ccc2C(=O)O)c1 | 5.48
COc1ccc(Nc2cc(Cl)ccc2C(=O)O)cc1 | 4.41
Cc1ccc(Nc2ccccc2C(=O)O)cc1 | 4.09
O=C(O)c1ccc(Cl)cc1Nc1ccc([N+](=O)[O-])cc1 | 4.04
COc1ccccc1Nc1ccccc1C(=O)O | 3.6

Other lines, results leading:

logP | SMILES
4.25 | O=C(O)c1ccc(Cl)cc1Nc1ccccc1
5 | O=C(O)c1ccc(Cl)cc1Nc1cccc(Cl)c1
4.01 | Cc1ccccc1Nc1ccccc1C(=O)O
4.73 | Cc1ccccc1Nc1cc(Cl)ccc1C(=O)O
5.16 | O=C(O)c1ccc(Cl)cc1Nc1cccc(Br)c1
5.43 | Cc1ccc(Nc2cc(Cl)ccc2C(=O)O)cc1C
4.32 | COc1ccccc1Nc1cc(Cl)ccc1C(=O)O
4.81 | Cc1ccc(Nc2cc(Cl)ccc2C(=O)O)cc1
4.97 | O=C(O)c1ccc(Cl)cc1Nc1ccc(Cl)cc1
4.67 | O=C(O)c1ccc(Cl)cc1Nc1ccccc1Cl
5.37 | O=C(O)c1ccc(Cl)cc1Nc1ccc(I)cc1
